Assays:
[1] = ABTS.+ radical scavenging assay
Method: The assay was performed in a 96-well plate by serial dilution method. A 2 mM ABTS^.+ working solution was prepared in a phosphate buffer (Zheleva-Dimitrova et al [2010]).To this, 200 μL of aqueous potassium per sulfate (70 mM) solution was added and the solution was incubated for 24 h in the dark at room temperature to develop a blue-green color. To 30 μL of ABTS^.+ working solution, 50 μL of different concentrations (3.9–1000 μM) of the test sample solution and 170 μL of phosphate buffer (pH-7.4) were added in a well. The plate was then incubated in the dark at room temperature for 10 min. Then absorbance was measured at 690 nm using Elisa reader. Quercetin and ascorbic acid were used as standards. The percentage scavenging of ABTS^.+ was calculated using the formula, (Control Absorbance–Test Absorbance)*100/(Control Absorbance) and the anti-oxidant activity was expressed in terms of IC50 value.

MCF-7 = experiment: MTT cytotoxicity assay on MCF-7; assay type: cell-based; conditions: 24 h, read-out: Inhibition of cell proliferation, IC50, MCF-7
Method: (§1) The monolayer cell culture was trypsinized and the cell count was adjusted to 5.0 × 10^5 cells/ml using respective media containing 10% FBS. To each well of the 96-well microtiter plate, 100 µL of the diluted cell suspension (50,000cells/well) was added. After 24 h, when a partial monolayer was formed, the supernatant was flicked off, the monolayer was then washed once again with the medium and 100 µL of different test concentrations of test drugs were added on to the partial monolayer in microtiter plates. The plates were then incubated at 37 °C for 24 h in 5% CO2 atmosphere. After incubation, the test solutions in the wells were discarded and 100 µL of MTT (5 mg/10 ml of MTT in PBS) was added to each well. The plates were then incubated for 4 h at 37 °C in 5% CO2 atmosphere. The supernatant was then removed and 100 µL of DMSO was added and the plates were gently shaken to solubilize the formed formazan. The absorbance was measured using a microtiter plate reader at a wavelength of 590 nm. The percentage growth inhibition was thus calculated using the following formula and the concentration of the test drug required to inhibit the cell growth by 50% (IC50) values is generated from the dose–response curves for each one of the cell lines (Meerloo et al. [2011]).
(§2) The test compounds were screened for their in vitro cytotoxicity by MTT assay against two cancer cell lines, namely MCF-7, HCT-116 and normal epithelial kidney cells (Vero). Doxorubicin was used as a reference standard.

[2] = system: normal epithelial kidney cells (Vero); experiment: MTT cytotoxicity assay on Vero; assay type: cell-based; conditions: 24 h, read-out: Inhibition of cell proliferation, IC50, Vero
Method: as §1, §2

[3] = system: CDK2 gene expression in HCT 116 cell lines; experiment: Semi-quantitative RT-PCR gene expression of CDK2; assay type: cell-based, Human; conditions: for Relative gene expression of CDK2: control 1.00
Method: (§3) HCT-116 cells were trypsinized and added to 1 ml TRIzol and vortexed. Samples were then allowed to stand for 5 min at room temperature. 0.2 ml of chloroform per 1 ml of TRIzol was added. The tube was later stoppered and shaken vigorously for 15 s and was allowed to stand at room temperature for 5 min. The resulting mixture was then centrifuged at 10,000×rpm for 15 min at […]. The upper aqueous phase was transferred to another clean tube followed by the addition of 0.5 ml of isopropanol per 1 ml of TRIzol. The contents were mixed gently by inverting the sample 5 times and incubated at room temperature for 5 min. Further, the tubes were centrifuged at 10,000×rpm for the next 10 min at […]. Later, the supernatant was discarded and the RNA pellet was washed by adding 1 ml of 70% ethanol. Further, the contents were mixed gently by inverting the sample for few times. It was again centrifuged for 5 min at 14,000×rpm at […]. In the later step, the supernatant was discarded by inverting the tube on a clean tissue paper. Later, the pellet was dried by incubating in a […] for 5 min at 55 °C. The pellet was then resuspended in 25 µL of DEPC (Diethyl pyro carbonate) treated water.
(§4) A semi-quantitative reverse transcriptase polymerase chain reaction (RT-PCR) was carried out using Techno Prime system to determine the levels of β-actin and CDK-2 and CyclinA mRNA expression. The cDNA was synthesized from 2 µg of RNA using the Verso cDNA synthesis kit (Thermo Fischer Scientific) with oligo dT (deoxy thymine) primer according to the manufacturer’s instructions. The reaction volume was set to 20 μL and the cDNA synthesis was performed at 42 °C for 60 min followed by RT inactivation at 85 °C for 5 min (Murakami [1996]).
(§5) The PCR mixture (final volume of 20 µL) contains 1 µL of cDNA, 10 µL of Red Taq Master Mix 2× (Ampliqon) and 1 µM of each complementary primer specific for CDK2 and CyclinA and β-actin (internal control) sequence. The samples are denatured at 95 °C for 5 min and amplified using 35 cycles of 95 °C for 30 s then again at 55 °C for 30 s and 72 °C for 1 min for β-actin; the […] annealing was finally set to 56 °C followed by the final elongation at 72 °C for 10 min. […] Ten microliters of the final amplification product are run on a 2% ethidium-stained agarose gel and photographed. Quantification of the results could be accomplished by measuring the optical density of the bands, using the computerized imaging program Image J. The values were normalized to β-actin intensity levels (Bookout and Mangelsdorf [2003]).

[4] = system: Cyclin A gene expression in HCT 116 cell lines; experiment: Semi-quantitative RT-PCR gene expression of Cyclin A; assay type: cell-based, Human; conditions: for CyclinA expression profile (in words): HCT 116; for Relative gene expression of Cyclin A: control 1.00
Method: as §3, §4, §5

COc1ccc(/C=C2\Oc3c(c(OC)cc(OC)c3C3=CCN(C(C)C)CC3)C2=O)cc1OC [NISOA4]
IC50 [1]: 127 ± 12.5 µM
IC50 (MCF-7): 35.6 µM
IC50 [2]: > 200 µM
Band intensity of PCR amplicon of genes, CDK2 ([3]; 12.5 μM): 16,091.61
Normalized (CDK2 to β-actin) ([3]; 12.5 μM): 0.63
expression of CDK2 (in words) ([3]; 12.5 μM and 25 μM, HCT 116): clear dose-dependent decrease
Relative gene expression of CDK2 ([3]; 12.5 μM): 0.59
Band intensity of PCR amplicon of genes, CDK2 ([3]; 25 μM): 13,190.418
Normalized (CDK2 to β-actin) ([3]; 25 μM): 0.52
Relative gene expression of CDK2 ([3]; 25 μM): 0.49
Band intensity Of PCR Amplicon Of genes, Cyclin A ([4]; 12.5 μM): 16,245.903
Normalized (Cyclin A to β-actin) ([4]; 12.5 μM): 0.64
CyclinA expression profile (in words) ([4]; 12.5 μM): very little or no reduction
Relative gene expression of Cyclin A ([4]; 12.5 μM): 1.00
Band intensity Of PCR Amplicon Of genes, Cyclin A ([4]; 25 μM): 10,798.368
Normalized (Cyclin A to β-actin) ([4]; 25 μM): 0.43
CyclinA expression profile (in words) ([4]; 25 μM): clear decrease
Relative gene expression of Cyclin A ([4]; 25 μM): 0.67
